In US7375222B2, “2,4,6-Triamino-1,3,5-triazine derivative” (Astellas Pharma Inc., priority 2002, dated 2008):
Counter-ions that a name gives are not always drawn.

Tests used:
[1] = target: T1, BEC 1 potassium channel (Homo sapiens, UniProt Q9ULD8); test: BEC 1 inhibitory activity using released amount of 86Rb ions from BEC 1-expressing cells; assay type: cell-based; conditions: 86Rb ion release, BEC 1-stably expressing CHO (dhfr-deficient) cell, 100 mM KCl stimulation; read-out: BEC1 IC50
T1 construct: expressed in transfected cells
T1 sequence (Q9ULD8 1-1083): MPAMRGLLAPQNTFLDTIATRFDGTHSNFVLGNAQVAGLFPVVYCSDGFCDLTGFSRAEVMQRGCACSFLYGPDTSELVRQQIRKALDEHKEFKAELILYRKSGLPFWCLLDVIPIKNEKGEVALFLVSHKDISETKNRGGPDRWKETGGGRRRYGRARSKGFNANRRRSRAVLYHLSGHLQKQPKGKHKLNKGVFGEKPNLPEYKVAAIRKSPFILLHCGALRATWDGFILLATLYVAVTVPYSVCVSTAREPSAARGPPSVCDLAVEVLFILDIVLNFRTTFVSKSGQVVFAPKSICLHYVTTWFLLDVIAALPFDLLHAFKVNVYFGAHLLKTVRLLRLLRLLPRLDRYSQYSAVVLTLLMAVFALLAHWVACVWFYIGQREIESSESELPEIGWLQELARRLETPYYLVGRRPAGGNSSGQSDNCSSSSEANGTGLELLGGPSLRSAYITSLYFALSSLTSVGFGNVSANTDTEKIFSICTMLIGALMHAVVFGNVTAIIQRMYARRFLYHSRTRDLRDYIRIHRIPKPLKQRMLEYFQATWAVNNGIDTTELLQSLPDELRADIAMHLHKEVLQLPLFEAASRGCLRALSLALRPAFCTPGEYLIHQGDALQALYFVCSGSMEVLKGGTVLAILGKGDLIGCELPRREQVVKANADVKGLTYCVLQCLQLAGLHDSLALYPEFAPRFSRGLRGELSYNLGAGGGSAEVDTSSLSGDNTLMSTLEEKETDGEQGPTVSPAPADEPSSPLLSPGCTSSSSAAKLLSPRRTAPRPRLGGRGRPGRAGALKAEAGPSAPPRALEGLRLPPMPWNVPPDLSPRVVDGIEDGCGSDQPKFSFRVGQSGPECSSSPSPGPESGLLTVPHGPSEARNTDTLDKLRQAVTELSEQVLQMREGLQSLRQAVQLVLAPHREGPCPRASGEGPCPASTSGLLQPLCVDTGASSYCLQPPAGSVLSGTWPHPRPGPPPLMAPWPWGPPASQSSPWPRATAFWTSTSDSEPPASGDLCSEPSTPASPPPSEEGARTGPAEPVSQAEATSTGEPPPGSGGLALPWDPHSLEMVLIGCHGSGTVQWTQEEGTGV
Procedure: In general, the potassium channel can pass Rb^+ ion similar to K^+ ion, so that the channel activity can be measured using release of a radioisotope ^86Rb^+ as a marker. By incubating cells expressing the novel potassium channel protein together with ^86RbCl (e.g., 18 hr, 37° C.), ^86Rb^+ can be incorporated into the cells. The cells are washed with a low K^+ concentration physiological saline (e.g., 4.5 mM K^+) and then suspended in the same solution. When a high K^+ concentration solution (e.g., 100 mM in final concentration) is added to the cell suspension, membrane potential of the cell is depolarized and the potassium channel therefore is activated. As a result, the intracellular ^86Rb^+ is released into the extracellular part, thus radioactivity of the extracellular solution can be used as a marker of the channel activity. It is possible to screen a compound and a peptide capable of modifying activity of the BEC 1 potassium channel protein, by comparing the radioactivity released into the extracellular part when the high K^+ concentration solution is added in the presence and absence of each drug to be tested.
Method for Measuring BEC 1 Inhibitory Activity of Compounds Using Released Amount of ^86Rb ions as the Index
The channel activity of BEC 1 was measured in accordance with the method described in WO 99/37677, using amount of a radioisotope ^86Rb ion released from a BEC 1-expressing cell as the index. That is, when an ^86Rb ion-incorporated BEC 1-expressing cell was stimulated with 100 mM KCl, the radioactivity released from the cell was used as the channel activity of BEC 1. The ^86Rb ions were incorporated into a BEC 1-stably expressing cell by culturing the cell (3 hours, 37° C.) in the presence of ^86RbCl (0.5 μCi/ml), and the un-incorporated ^86Rb ions were removed by washing three times with HEPES-buffered saline (pH 7.4, 2.5 mM KCl). The cells were incubated with HEPES-buffered saline containing a compound to be tested at room temperature for 15 minutes and then further incubated with 100 mM KCl-containing HEPES-buffered saline (pH 7.4) containing the compound to be tested at room temperature for 5 minutes. The extracellular medium was recovered, and then the remaining cells were lysed with 0.1 N NaOH and recovered.
The Cerenkov radioactivity of the extracellular medium and cell lysate was respectively measured, and their total was used as the total radioactivity. The released amount of ^86Rb ions was expressed by the percentage of extracellular medium radioactivity based on the total radioactivity. The value obtained in the presence of the compound was used as a test value, and the value obtained in the absence of the compound as a control value and the value obtained when not stimulated with 100 mM KCl as a blank value. Inhibitory action of each compound was expressed by % inhibition, namely (control value−test value)×100/(control value−blank value), or by an IC50 value calculated from the % inhibition. As the test results of typical compounds are shown in the following Tables 2 and 3, it was confirmed that said compounds have the BEC 1 potassium channel inhibitory action.
In this connection, as the BEC 1-expressing cell, a BEC 1-stably expressing cell prepared in accordance with the method described in WO 99/37677 using a dihydrofolate reductase (dhfr)-deficient strain of a Chinese hamster ovary cell was used.

Structure (SMILES) | melting point [°C] | IC50 [1] [nM]
Cc1ccc(Nc2nc(Nc3ccccc3)nc(NC(C)C)n2)cc1 (as salt: HCl) [Ex 47] | 194 to 195 | 
CC(C)Nc1nc(Nc2ccccc2)nc(Nc2ccc(C(F)(F)F)cc2)n1 (as salt: HCl) [Ex 49] | 198 to 200 | 
CC(CCCC(C)(C)O)Nc1nc(Nc2ccccc2)nc(Nc2ccccc2)n1 (centres unmarked) (as salt: HCl) [Example 742] | 112 to 113 | 
Fc1ccc(Nc2nc(NCc3ccnc(F)c3)nc(Nc3ccc(F)cc3)n2)cc1 (as salt: HCl) [Example 743] | 191 to 192 | 
Fc1ccc(Nc2nc(NCc3ccnc(F)c3)nc(Nc3ccccc3)n2)cc1 (as salt: HCl) [Example 744] | 175 to 177 | 
COCCNc1nc(Nc2ccccc2)nc(Nc2ccc(F)cc2)n1 (as salt: HCl) [Example 771] | 179 to 181 | 
OCCNc1nc(Nc2ccccc2)nc(Nc2ccc(F)cc2)n1 (as salt: HCl) [Example 773] | 209 to 211 | 
OCCCCNc1nc(Nc2ccccc2)nc(Nc2ccc(F)cc2)n1 (as salt: HCl) [Example 775] | 185 to 186 | 
OCCCCCNc1nc(Nc2ccccc2)nc(Nc2ccc(F)cc2)n1 (as salt: HCl) [Example 776] | 178 to 180 | 
OCCOCCNc1nc(Nc2ccccc2)nc(Nc2ccc(F)cc2)n1 (as salt: HCl) [Example 777] | 141 to 142 | 
C[C@H](CO)Nc1nc(Nc2ccccc2)nc(Nc2ccc(F)cc2)n1 (as salt: HCl) [Example 779] | 193 to 195 | 
CN(C)Nc1nc(Nc2ccccc2)nc(Nc2ccc(F)cc2)n1 (as salt: HCl) [Example 791] | 154 to 156 | 
Fc1ccc(Nc2nc(NCc3ccnc(F)c3)nc(Nc3ccc(Cl)cc3)n2)cc1 (as salt: HCl) [Example 797] | 214 to 215 | 
COCCNc1nc(Nc2ccccc2)nc(Nc2ccc(OC)cc2)n1 (as salt: HCl) [Example 808] | 169 to 170 | 
C#CCNc1nc(Nc2ccccc2)nc(Nc2ccccc2)n1 (as salt: HCl) [compound 16] | 195 to 197 | 
COCCCNc1nc(Nc2ccccc2)nc(Nc2ccccc2)n1 (as salt: HCl) [compound 18] | 154 to 155 | 
[O-][n+]1ccc(CCNc2nc(Nc3ccccc3)nc(Nc3ccccc3)n2)cc1 (as salt: salt) (hydrate or solvate) [Example 740] | 161 to 162 | 
c1ccc(Nc2nc(NCC3CCOCC3)nc(Nc3ccccc3)n2)cc1 (as salt: salt) (hydrate or solvate) [Example 741] | 191 to 193 | 
Nc1cc(CNc2nc(Nc3ccccc3)nc(Nc3ccc(F)cc3)n2)ccn1 (as salt: salt) (hydrate or solvate) [Example 747] | 164 to 199 | 
Fc1ccc(Nc2nc(NCc3ccco3)nc(Nc3ccccc3)n2)cc1 (hydrate or solvate) [Example 764] | 144 to 148 | 
OCCCNc1nc(Nc2ccccc2)nc(Nc2ccc(F)cc2)n1 (hydrate or solvate) [Example 774] | 188 to 189 | 
CCN(CC)CCCC(C)Nc1nc(Nc2ccccc2)nc(Nc2ccc(F)cc2)n1 (centres unmarked) (hydrate or solvate) [Example 794] | 184 to 187 | 
Nc1cccc(CNc2nc(Nc3ccccc3)nc(Nc3ccc(F)cc3)n2)n1 (hydrate or solvate) [Example 819] | 164 to 165 | 
CCCCCNc1nc(Nc2ccccc2)nc(Nc2ccccc2)n1 [compound 14] | 78 to 81 | 390
COCCNc1nc(Nc2ccccc2)nc(Nc2ccccc2)n1 [compound 17] | 128 to 129 | 290

Now from value to compound:

melting point [°C] | IC50 [1] [nM] | Structure (SMILES)
162 to 163 |  | CSCCCNc1nc(Nc2ccccc2)nc(Nc2ccccc2)n1 (as salt: HCl) [compound 19]
191 to 192 |  | OCCCNc1nc(Nc2ccccc2)nc(Nc2ccccc2)n1 (as salt: HCl) [compound 21]
167 to 169 |  | OCCOCCNc1nc(Nc2ccccc2)nc(Nc2ccccc2)n1 (as salt: HCl) [compound 23]
166 to 167 |  | Fc1ccc(CNc2nc(Nc3ccc(F)cc3)nc(Nc3ccc(F)cc3)n2)cc1 (as salt: HCl) [compound 29]
179 to 180 |  | Fc1ccc(Nc2nc(NCc3ccco3)nc(Nc3ccc(F)cc3)n2)cc1 (as salt: HCl) [compound 30]
180 to 182 |  | Fc1ccc(Nc2nc(NCc3cccs3)nc(Nc3ccc(F)cc3)n2)cc1 (as salt: HCl) [compound 31]
175 to 176 |  | COCCNc1nc(Nc2ccc(F)cc2)nc(Nc2ccc(F)cc2)n1 (as salt: HCl) [compound 35]
162 to 163 |  | OCCCCCNc1nc(Nc2ccc(F)cc2)nc(Nc2ccc(F)cc2)n1 (as salt: HCl) [compound 37]
151 to 152 |  | OCCOCCNc1nc(Nc2ccc(F)cc2)nc(Nc2ccc(F)cc2)n1 (as salt: HCl) [compound 38]
180 to 182 |  | COc1cccc(Nc2nc(Nc3cccc(OC)c3)nc(NC(C)C)n2)c1 (as salt: HCl) [compound 40]
118 to 119 | 190 | OCCCCCNc1nc(Nc2ccccc2)nc(Nc2ccccc2)n1 [compound 22]
205 to 206 | 220 | CC(C)Nc1nc(Nc2ccccc2)nc(Nc2ccc(F)cc2)n1.Cl [compound 45, N-(4-fluorophenyl)-N′-isopropyl-N″-phenyl-1,3,5-triazine-2,4,6-triamine hydrochloride]
